Series [1] is described as follows: SPR glucose detection on immobilized GGBP sensor surfaces (BIACORE). In kind it is binding. Conditions: for SPR Signal, Buffer: running buffer injection; for glucose detection by SPR using thiol-coupled mutants (FIG. 8): 0.1 mM and 1 mM glucose, thiol-coupled surfaces. On the procedure:
Proteins were immobilized onto a carboxymethyldextran (CM5) sensor surface (BIACORE) by thiol coupling using standard thiol coupling chemistry with a flow rate of 5 μl/min in 10 mM HEPES pH 7.4, 150 mM NaCl, 0.05% BIACORE Surfactant P20 (BIAcore) (HBS-P) running buffer. The sensor surface was activated with a 2 minute pulse of […] (EDC/NHS) followed by a 4 min pulse of 80 mM 2-(2-pyridinyldithio) ethaneamine (PDEA), 0.1 M sodium borate pH 8.5, E149C GGBP (1.8 mg/ml) was injected at a 1:50 dilution in 10 mM sodium acetate pH 4.5 for various times. Carbonic anhydrase 11 (5 mg/ml) was injected at 1:10 dilution in 10 mM sodium acetate pH 4.5 for 20 minutes. G74C GGBP (2.6 mg/ml) was injected at 1:50 dilution in 10 mM sodium acetate pH 4.5 for 12 minutes. A213C GGBP (0.6 mg/ml) was injected at 1:20 dilution in 10 mM sodium acetate pH 4.5 for 2 4 minutes. A 4 minute pulse of 50 mM cysteine, 1 M NaCl, 0.1 M sodium formate pH 4.3 was used to quench the reaction and remove non-specifically bound protein from the surface. Following immobilization, the protocol DESORB (0.5% SDS, 50 mM glycine pH 9.5) was run to remove protein aggregates from the system. Surfaces of 3000 RU (E149C GGBP), 4500 RU (carbonic anydrase), 2000 RU (A213C GGBP), and 4000 RU (G74C GGBP) were used for experiments.
Proteins were immobilized onto a Carboxymethyldextran (CM5) sensor surface (BIAcore) by amine coupling using standard amine coupling chemistry with a flow rate of 5 μl/min in HBS-P running buffer. The surface was activated with a 7 minute pulse of EDC/NHS. Proteins (WT GGBP, 2 mg/ml; E149C GGBP, 1.8 mg/ml) were injected at a 1:50 dilution in 10 mM sodium acetate pH 4.5 for 20 minutes. A pulse of 1 M ethanolamine pH 8.0 was injected to quench the reaction and remove nonspecifically bound protein. Surfaces of 4800 RU for E149C and 2400 RU for wild type GGBP were used for experiments.
Thiol coupling of E149C GGBP on C1 surfaces was carried out as follows. E149C GGBP was immobilized on a carboxymethyl (C1) chip using standard thiol coupling chemistry with a flow rate of 5 μl/min in HBS-P running buffer. The C1 surface was activated with a 4 min pulse of EDC/NHS followed by a 4 min pulse of 80 mM PDEA of 0.1 M sodium borate pH 8.5. E149C GGBP (1.8 mg/ml) was injected at a 1:2 dilution in 10 mM sodium acetate pH 4.5 for 50 minutes at a flow rate of 1 μl/min. A 7 minute pulse of 50 mM cysteine, 1M NaCl, 0.1 M sodium formate pH 4.3 was used to quench the reaction and remove non-specifically bound protein from the surface. A surface of 9000 RU was used for experiments.
Amine coupling of E149C GGBP on C1 surfaces. E149C GGBP was immobilized on a C1 chip using standard amine coupling chemistry with a flow rate of 5 μl/min in HBS-P running buffer. The surface was activated with a 7 minute pulse of EDC/NHS. E149C GGBP (1.8 mg/ml) was injected at a 1:2 dilution in 1 0 MM sodium acetate pH 4.5 for 50 minutes at a flow rate of 1 μl/min. A pulse of 1 M ethanolamine pH 8.0 was injected to quench the reaction and remove nonspecifically bound protein.
All glucose injections were performed at 25° C. in the appropriate running buffer for the specific experiment. Glucose injections were 10 μl at a flow rate of 10 μl/min (1 minute contact time). Injections of different glucose concentrations were repeated three times and alternated between the protein and blank surfaces. The protein surface was regenerated by washing of the flow channel with running buffer followed by a running buffer injection. Sensorgrams were either blank surface subtracted or were double referenced by first subtracting the glucose injection over a blank surface from the corresponding glucose injection on the protein surface. A buffer injection over the blank surface was then subtracted from a buffer injection over the protein surface. The final sensorgram was obtained by subtracting the normalized buffer injection from the normalized glucose injection. […]
A general note: Surface plasmon resonance follows binding to a sensor surface in real time, without labels.

Series [2] in a line: SPR response of thiol coupled E149C GGBP to a panel of sugars. The class given is binding. Conditions: sugars at 100 μM, 3000 RU thiol-coupled surface. On the procedure:
All glucose injections were performed at 25° C. in the appropriate running buffer for the specific experiment. Glucose injections were 10 μl at a flow rate of 10 μl/min (1 minute contact time). Injections of different glucose concentrations were repeated three times and alternated between the protein and blank surfaces. The protein surface was regenerated by washing of the flow channel with running buffer followed by a running buffer injection. Sensorgrams were either blank surface subtracted or were double referenced by first subtracting the glucose injection over a blank surface from the corresponding glucose injection on the protein surface. A buffer injection over the blank surface was then subtracted from a buffer injection over the protein surface. The final sensorgram was obtained by subtracting the normalized buffer injection from the normalized glucose injection.
FIG. 2 depicts the specificity of E149C mutated GGBP to bind glucose preferentially. The indicated sugars were injected at a concentration of 100 μM on a 3000 RU thiol-coupled E149C surface. Double referenced sensorgrams were averaged during the time frame corresponding between 10 and 50 seconds during the injection. Each injection was done in triplicate.

The mark [3] stands for this setting: thiol coupling, CM5 chip, 100 μM glucose, blank subtracted or double referenced.
Setting [4] is: amine coupling, CM5 chip, 100 μM glucose.

Take “K137C GGBP H6: GGBP with cysteine substituted for lysine at position 137, histidine tag”: the “SPR Signal, Buffer” value in series [1] (thiol coupling, CM5 chip) was 4.8 ± 3.2 RU. The “SPR Signal at Saturating Amounts of Glucose” value (“SPR Signal … of Glucose” below) in series [1] (setting [3]) is given as 9.5 ± 4.2/ RU.
In the case of “G74C GGBP H6: GGBP with cysteine substituted for glycine at position 74, histidine tag”, the “glucose detection by SPR using thiol-coupled mutants (FIG. 8)” value in series [1] was “signal-enhanced glucose detection”. In series [1] (thiol coupling, CM5 chip), the “SPR Signal, Buffer” value came to 2.7 ± 3.6 RU. Besides, the “SPR Signal … of Glucose” value in series [1] (setting [3]) is 22.3 ± 0.2/ RU.
For “WT GGBP H6: wild type E. coli Galactose/Glucose Binding Protein with histidine tag, non-thiol negative control [reference compound]”, the “SPR Signal … of Glucose” value in series [1] (setting [4]) was 5.9 ± 2.3/ RU. The “SPR Signal, Buffer” value in series [1] (amine coupling, CM5 chip) was 2.9 ± 1.5 RU.
As for “A213C GGBP H6: GGBP with cysteine substituted for alanine at position 213, histidine tag”, the “glucose detection by SPR using thiol-coupled mutants (FIG. 8)” value in series [1] is reported as “signal-enhanced glucose detection”. Further, the “SPR Signal, Buffer” value in series [1] (thiol coupling, CM5 chip) was −0.5 ± 0.4 RU. Besides, the “SPR Signal … of Glucose” value in series [1] (thiol coupling, CM5 chip, 1 mM glucose) is listed as 119 ± 0.4/ RU.
On to “E149C GGBP H6: E. coli GGBP with cysteine substituted for glutamic acid at position 149, C-terminal six-histidine tag”, for which, in series [1] (100 μM glucose, 2000 RU amine-coupled surface), the “glucose detection on C1 surface (FIG. 7)” value is “does not result in glucose binding”. Further, the “glucose detection on C1 surface (FIG. 6)” value in series [1] (100 μM glucose, 9000 RU thiol-coupled protein surface) is recorded as “Glucose detection is evident”. The “signal upon glucose binding, thiol-coupling in comparison to amino coupling or buffer only (FIG. 1)” value in series [1] (100 µM glucose, one minute injection) is recorded as “significantly enhanced signal”. Moreover, the “SPR Signal … of Glucose” value in series [1] (amine coupling, C1 chip, 1 mM glucose) is −4.9 ± 5.3/ RU; in series [1] (setting [4]), 2.1 ± 5.5/ RU; in series [1] (thiol coupling, C1 chip, 100 μM glucose), 10.2 ± 2.8/ RU; in series [1] (setting [3]) it was 17.7 ± 0.5/ RU; in series [1] (thiol coupling, CM5 chip, denatured surface (neg control), 100 μM glucose), 0 ± 4.1/ RU; in series [1] (thiol coupling, CM5 chip, refolded protein surface, 100 μM glucose) it was 11.4 ± 1.0/ RU. Moreover, the “SPR Signal, Buffer” value in series [1] (amine coupling, C1 chip) is 0.4 ± 3.1 RU; in series [1] (amine coupling, CM5 chip), 1.4 ± 3.1 RU; in series [1] (thiol coupling, C1 chip), 0.8 ± 1.5 RU; in series [1] (thiol coupling, CM5 chip), −0.5 ± 4.3 RU; in series [1] (thiol coupling, CM5 chip, denatured surface (neg control)), −1.4 ± 2.2 RU; in series [1] (thiol coupling, CM5 chip, refolded protein surface), −3.7 ± 1.5 RU. Also, the “glucose signal after denaturation (FIG. 3)” value in series [1] (thiol-coupled surface, 1 M guanidine HCl overnight, HBS-EP injections) is listed as “did not result in glucose signals”. Also, the “glucose signal after renaturation (FIG. 3)” value in series [1] (thiol-coupled surface, HBS-P and 1.5 mM CaCl2, continuous flow overnight) was “Glucose signals were restored”. In series [2], the “specificity to bind glucose preferentially over other sugars (FIG. 2)” value is “glucose binds more readily”.

Values taken from US7326538B2, “Binding proteins as biosensors” (Becton Dickinson and Company, priority 2002, dated 2008).
